{"source": "patent US5605929A", "about": "“Methods and compositions for inhibiting 5α-reductase activity” (priority 1995, dated 1997)"}
{"biological_target": "T1, 5α-Reductase of Rat Liver Microsomes (Rattus norvegicus, UniProt P24008)", "T1 sequence (P24008 1-259)": "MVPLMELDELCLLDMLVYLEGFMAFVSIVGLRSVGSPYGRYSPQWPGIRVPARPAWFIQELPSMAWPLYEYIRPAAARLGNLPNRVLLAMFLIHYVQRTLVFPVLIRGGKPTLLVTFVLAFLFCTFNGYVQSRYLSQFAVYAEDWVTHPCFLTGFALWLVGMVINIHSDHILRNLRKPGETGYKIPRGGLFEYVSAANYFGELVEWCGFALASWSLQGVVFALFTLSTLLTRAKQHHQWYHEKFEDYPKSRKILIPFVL", "experiment": "biochemical", "conditions": "not given", "units": {"IC50": "µM"}}
{"smiles": "CCCCC/C=C\\C/C=C\\CCCCCCCCC(=O)O", "note": "[10,13-Nonadecadienoic Acid, 10,13-nonadecadienoic acid]", "IC50": 86}
{"smiles": "CCC=CCC=CCC=CCCCCCCCCCCCC(=O)OC", "note": "[methyl 13,16,19-docosatrienoate]", "IC50": "> 200"}
{"smiles": "CCCC/C=C\\CCCCCCCCC(=O)O", "note": "[10-Pentadecenoic Acid, 10-pentadecenoic acid]", "IC50": 100}
{"smiles": "CCCCCCCCCCCCCCCCCCCC(=O)Cl", "note": "[Arachidoyl Chloride, archidoyl chloride]", "IC50": "> 200"}
{"smiles": "CCCCC/C=C\\C/C=C\\C/C=C\\CCCCCOC(C)=O", "note": "[γ-Linolenyl Acetate, γ-linolenyl acetate]", "IC50": "> 200"}
{"smiles": "CCCCC/C=C\\C/C=C\\C/C=C\\CCCCCCC(=O)OC", "note": "[methyl homo-γ-linolenate]", "IC50": "> 200"}
{"smiles": "CCCCCCCCC=CCC=CCC=CCCCC(=O)O", "note": "[5,8,11-eicosatrienoic acid]", "IC50": 50}
{"smiles": "CCCCCC/C=C\\CCCCCCCCCC(=O)O", "note": "[11-Octadecenoic Acid, 11-octadecenoic acid]", "IC50": 26}
{"smiles": "CCCCC/C=C\\C/C=C\\C/C=C\\CCCCC(=O)Cl", "note": "[γ-Linolenoyl Chloride, γ-linolenoyl chloride]", "IC50": "> 200"}
{"smiles": "CCCCCC/C=C\\CCCCCCCC(=O)O", "note": "[Palmitoleic acid]", "IC50": 108}
{"smiles": "CCCCC/C=C/C/C=C/CCCCCCCCC#N", "note": "[linolelaidyl cyanide nitrile]", "IC50": "> 200"}
{"smiles": "CCCCCC/C=C\\CCCCCCCCC(=O)O", "note": "[10-cis-Heptadecenoic Acid, 10-heptadecenoic acid]", "IC50": 28}
{"smiles": "CCCCC/C=C\\C/C=C\\C/C=C\\CCCCCCC(=O)Cl", "note": "[homo-γ-linolenoyl chloride]", "IC50": "> 200"}
{"smiles": "CCCCC/C=C\\C/C=C\\C/C=C\\CCCCCO", "note": "[γ-Linolenyl Alcohol, γ-linolenyl alcohol]", "IC50": "> 200"}
{"smiles": "CCCCC/C=C/C/C=C/CCCCCCCCCC(=O)O", "note": "[11,14-trans-Eicosadienoic Acid, trans 11,14-eicosadienoic acid]", "IC50": "> 200"}
{"smiles": "CCCCCCCCCCCCCC/C=C\\CCCC(=O)O", "note": "[5-Eicosenoic Acid, 5-eicosenoic acid]", "IC50": "> 200"}
{"biological_target": "T1, 5α-Reductase of Rat Liver Microsomes", "experiment": "biochemical", "conditions": "read-out: % Inhibition of [^3 H]4-MA binding", "units": {"inhibition at 40 µM": "%", "inhibition at 200 µM": "%"}}
{"smiles": "CCCCCC/C=C\\CCCCCCCC(=O)OC", "note": "[Palmitoleic acid methyl ester]", "inhibition at 40 µM": "< 10", "inhibition at 200 µM": "< 10"}
{"smiles": "CC/C=C\\C/C=C\\C/C=C\\CCCCCCCC(=O)Cl", "note": "[Linolenoyl Chloride]", "inhibition at 200 µM": "< 10"}
{"biological_target": "T1, 5α-Reductase of Rat Liver Microsomes", "experiment": "biochemical", "conditions": "read-out: % Inhibition of [^3 H]4-MA binding, Table 1, 10 μM", "units": {"inhibition at 10 µM": "%"}}
{"smiles": "CCCCCC/C=C\\CCCCCCCC(=O)O", "note": "[Palmitoleic acid]", "inhibition at 10 µM": "< 10"}
{"biological_target": "T1, 5α-Reductase of Rat Liver Microsomes", "experiment": "biochemical", "conditions": "read-out: % Inhibition of [^3 H]4-MA binding, Table 1, 40 μM", "units": {"inhibition at 40 µM": "%"}}
{"smiles": "CCCCCCCCCCC/C=C\\CCCCC(=O)O", "note": "[Petroselinic acid]", "inhibition at 40 µM": "< 10"}
{"smiles": "CCCCCC/C=C\\CCCCCCCC(=O)O", "note": "[Palmitoleic acid]", "inhibition at 40 µM": "16 ± 5"}
{"biological_target": "T1, 5α-Reductase of Rat Liver Microsomes", "experiment": "biochemical", "conditions": "read-out: % Inhibition of [^3 H]4-MA binding, Table 1, 200 μM", "units": {"inhibition at 200 µM": "%"}}
{"smiles": "CCCCCCCCCCC/C=C\\CCCCC(=O)O", "note": "[Petroselinic acid]", "inhibition at 200 µM": "52 ± 9"}
{"smiles": "CCCCCC/C=C\\CCCCCCCC(=O)O", "note": "[Palmitoleic acid]", "inhibition at 200 µM": "73 ± 7"}
{"biological_target": "T1, 5α-Reductase of Rat Liver Microsomes", "experiment": "biochemical", "conditions": "read-out: % Inhibition of [^3 H]4-MA binding, Table 2, 5 μM", "units": {"inhibition at 5 µM": "%"}}
{"smiles": "CCCCC/C=C\\C/C=C\\CCCCCCCCC(=O)O", "note": "[10,13-Nonadecadienoic Acid, 10,13-nonadecadienoic acid]", "inhibition at 5 µM": "< 10"}
{"smiles": "CCCC/C=C\\CCCCCCCCC(=O)O", "note": "[10-Pentadecenoic Acid, 10-pentadecenoic acid]", "inhibition at 5 µM": "< 10"}
{"smiles": "CCCCC/C=C\\C/C=C\\C/C=C\\CCCCCOC(C)=O", "note": "[γ-Linolenyl Acetate, γ-linolenyl acetate]", "inhibition at 5 µM": "< 10"}
{"smiles": "CCCCCC/C=C\\CCCCCCCCCC(=O)O", "note": "[11-Octadecenoic Acid, 11-octadecenoic acid]", "inhibition at 5 µM": "< 10"}
{"smiles": "CCCCCC/C=C\\CCCCCCCCC(=O)O", "note": "[10-cis-Heptadecenoic Acid, 10-heptadecenoic acid]", "inhibition at 5 µM": "< 10"}
{"smiles": "CCCCC/C=C\\C/C=C\\C/C=C\\CCCCCO", "note": "[γ-Linolenyl Alcohol, γ-linolenyl alcohol]", "inhibition at 5 µM": "< 10"}
{"smiles": "CCCCC/C=C/C/C=C/CCCCCCCCCC(=O)O", "note": "[11,14-trans-Eicosadienoic Acid, trans 11,14-eicosadienoic acid]", "inhibition at 5 µM": "< 10"}
{"smiles": "CCCCCCCCCCCCCC/C=C\\CCCC(=O)O", "note": "[5-Eicosenoic Acid, 5-eicosenoic acid]", "inhibition at 5 µM": "< 10"}
{"biological_target": "T1, 5α-Reductase of Rat Liver Microsomes", "experiment": "biochemical", "conditions": "read-out: % Inhibition of [^3 H]4-MA binding, Table 2, 10 μM", "units": {"inhibition at 10 µM": "%"}}
{"smiles": "CCCCC/C=C\\C/C=C\\CCCCCCCCC(=O)O", "note": "[10,13-Nonadecadienoic Acid, 10,13-nonadecadienoic acid]", "inhibition at 10 µM": "< 10"}
{"smiles": "CCCC/C=C\\CCCCCCCCC(=O)O", "note": "[10-Pentadecenoic Acid, 10-pentadecenoic acid]", "inhibition at 10 µM": "< 10"}
{"smiles": "CCCCCCCCCCCCCCCCCCCC(=O)Cl", "note": "[Arachidoyl Chloride, archidoyl chloride]", "inhibition at 10 µM": "< 10"}
{"smiles": "CCCCC/C=C\\C/C=C\\C/C=C\\CCCCCOC(C)=O", "note": "[γ-Linolenyl Acetate, γ-linolenyl acetate]", "inhibition at 10 µM": "< 10"}
{"smiles": "CCCCCC/C=C\\CCCCCCCCCC(=O)O", "note": "[11-Octadecenoic Acid, 11-octadecenoic acid]", "inhibition at 10 µM": 14}
{"smiles": "CCCCC/C=C\\C/C=C\\C/C=C\\CCCCC(=O)Cl", "note": "[γ-Linolenoyl Chloride, γ-linolenoyl chloride]", "inhibition at 10 µM": "< 10"}
{"smiles": "CCCCCC/C=C\\CCCCCCCC(=O)O", "note": "[Palmitoleic acid]", "inhibition at 10 µM": "< 10"}
{"smiles": "CCCCCC/C=C\\CCCCCCCCC(=O)O", "note": "[10-cis-Heptadecenoic Acid, 10-heptadecenoic acid]", "inhibition at 10 µM": "< 10"}
{"smiles": "CCCCC/C=C\\C/C=C\\C/C=C\\CCCCCO", "note": "[γ-Linolenyl Alcohol, γ-linolenyl alcohol]", "inhibition at 10 µM": "< 10"}
{"smiles": "CCCCC/C=C/C/C=C/CCCCCCCCCC(=O)O", "note": "[11,14-trans-Eicosadienoic Acid, trans 11,14-eicosadienoic acid]", "inhibition at 10 µM": "< 10"}
{"smiles": "CCCCCCCCCCCCCC/C=C\\CCCC(=O)O", "note": "[5-Eicosenoic Acid, 5-eicosenoic acid]", "inhibition at 10 µM": "< 10"}
{"biological_target": "T1, 5α-Reductase of Rat Liver Microsomes", "experiment": "biochemical", "conditions": "read-out: % Inhibition of [^3 H]4-MA binding, Table 2, 40 μM", "units": {"inhibition at 40 µM": "%"}}
{"smiles": "CCCCC/C=C\\C/C=C\\CCCCCCCCC(=O)O", "note": "[10,13-Nonadecadienoic Acid, 10,13-nonadecadienoic acid]", "inhibition at 40 µM": 37}
{"smiles": "CCCCCCCCCCC/C=C\\CCCCC(=O)O", "note": "[Petroselinic acid]", "inhibition at 40 µM": "< 10"}
{"smiles": "CCCC/C=C\\CCCCCCCCC(=O)O", "note": "[10-Pentadecenoic Acid, 10-pentadecenoic acid]", "inhibition at 40 µM": "< 10"}
{"smiles": "CCCCCCCCCCCCCCCCCCCC(=O)Cl", "note": "[Arachidoyl Chloride, archidoyl chloride]", "inhibition at 40 µM": "< 10"}
{"smiles": "CCCCC/C=C\\C/C=C\\C/C=C\\CCCCCOC(C)=O", "note": "[γ-Linolenyl Acetate, γ-linolenyl acetate]", "inhibition at 40 µM": "< 10"}
{"smiles": "CCCCCC/C=C\\CCCCCCCCCC(=O)O", "note": "[11-Octadecenoic Acid, 11-octadecenoic acid]", "inhibition at 40 µM": 55}
{"smiles": "CCCCC/C=C\\C/C=C\\C/C=C\\CCCCC(=O)Cl", "note": "[γ-Linolenoyl Chloride, γ-linolenoyl chloride]", "inhibition at 40 µM": "< 10"}
{"smiles": "CCCCCC/C=C\\CCCCCCCC(=O)O", "note": "[Palmitoleic acid]", "inhibition at 40 µM": 16}
{"smiles": "CCCCCC/C=C\\CCCCCCCCC(=O)O", "note": "[10-cis-Heptadecenoic Acid, 10-heptadecenoic acid]", "inhibition at 40 µM": 83}
{"smiles": "CCCCC/C=C\\C/C=C\\C/C=C\\CCCCCO", "note": "[γ-Linolenyl Alcohol, γ-linolenyl alcohol]", "inhibition at 40 µM": "< 10"}
{"smiles": "CCCCC/C=C/C/C=C/CCCCCCCCCC(=O)O", "note": "[11,14-trans-Eicosadienoic Acid, trans 11,14-eicosadienoic acid]", "inhibition at 40 µM": "< 10"}
{"smiles": "CCCCCCCCCCCCCC/C=C\\CCCC(=O)O", "note": "[5-Eicosenoic Acid, 5-eicosenoic acid]", "inhibition at 40 µM": "< 10"}
{"biological_target": "T1, 5α-Reductase of Rat Liver Microsomes", "experiment": "biochemical", "conditions": "read-out: % Inhibition of [^3 H]4-MA binding, Table 2, 200 μM", "units": {"inhibition at 200 µM": "%"}}
{"smiles": "CCCCC/C=C\\C/C=C\\CCCCCCCCC(=O)O", "note": "[10,13-Nonadecadienoic Acid, 10,13-nonadecadienoic acid]", "inhibition at 200 µM": 83}
{"smiles": "CCCCCCCCCCC/C=C\\CCCCC(=O)O", "note": "[Petroselinic acid]", "inhibition at 200 µM": 52}
{"smiles": "CCCC/C=C\\CCCCCCCCC(=O)O", "note": "[10-Pentadecenoic Acid, 10-pentadecenoic acid]", "inhibition at 200 µM": 71}
{"smiles": "CCCCCCCCCCCCCCCCCCCC(=O)Cl", "note": "[Arachidoyl Chloride, archidoyl chloride]", "inhibition at 200 µM": "< 10"}
{"smiles": "CCCCC/C=C\\C/C=C\\C/C=C\\CCCCCOC(C)=O", "note": "[γ-Linolenyl Acetate, γ-linolenyl acetate]", "inhibition at 200 µM": 27}
{"smiles": "CCCCCC/C=C/CCCCCCCCCC(=O)O", "note": "[trans-Vaccenic Acid]", "inhibition at 200 µM": 39}
{"smiles": "CCCCCC/C=C\\CCCCCCCCCC(=O)O", "note": "[11-Octadecenoic Acid, 11-octadecenoic acid]", "inhibition at 200 µM": 81}
{"smiles": "CCCCC/C=C\\C/C=C\\C/C=C\\CCCCC(=O)Cl", "note": "[γ-Linolenoyl Chloride, γ-linolenoyl chloride]", "inhibition at 200 µM": "< 10"}
{"smiles": "CCCCCC/C=C\\CCCCCCCC(=O)O", "note": "[Palmitoleic acid]", "inhibition at 200 µM": 73}
{"smiles": "CCCCCC/C=C\\CCCCCCCCC(=O)O", "note": "[10-cis-Heptadecenoic Acid, 10-heptadecenoic acid]", "inhibition at 200 µM": 84}
{"smiles": "CCCCC/C=C\\C/C=C\\C/C=C\\CCCCCO", "note": "[γ-Linolenyl Alcohol, γ-linolenyl alcohol]", "inhibition at 200 µM": 41}
{"smiles": "CCCCC/C=C/C/C=C/CCCCCCCCCC(=O)O", "note": "[11,14-trans-Eicosadienoic Acid, trans 11,14-eicosadienoic acid]", "inhibition at 200 µM": "< 10"}
{"smiles": "CCCCCCCCCCCCCC/C=C\\CCCC(=O)O", "note": "[5-Eicosenoic Acid, 5-eicosenoic acid]", "inhibition at 200 µM": "< 10"}
